Reference: BindingDB's records for doi:10.1016/j.bmcl.2004.04.105 (Institut Henri Beaufour, 2004)
pIC50: −log10 of the molar value.

Experiments:
[1] = Inhibitory activity against on calpain in C6 glial cells
[2] = Inhibitory activity against on calpain 1 in C6 glial cells

| pIC50 [1] | pIC50 [2] | Compound |
| --- | --- | --- |
| 4.63 |  | CC(C)C[C@H](NC(=O)c1ccc2c(c1)Nc1ccccc1S2)C(=O)N[C@H]1CCOC1O (some centres not stated) |
|  | 4.87 | CC(=O)OC1OCC[C@@H]1NC(=O)[C@H](CC(C)C)NC(=O)c1ccc2c(c1)Nc1ccccc1S2 (some centres not stated) |
